According to ChEMBL document CHEMBL1201862, “PubChem BioAssay data set” (2004):
Activity calls are given as the source filed them. Unless noted, no cut-off for these calls is given here.

Tests used:
Format in all cases: functional
[1] = target: T1, Sentrin-specific protease 6 (Homo sapiens, UniProt Q9GZR1); test: SENP6 protease inhibitors, SAR follow-up, biochemical, luminescence, set 2 (AID 588598)
T1 sequence (Q9GZR1 whole entry): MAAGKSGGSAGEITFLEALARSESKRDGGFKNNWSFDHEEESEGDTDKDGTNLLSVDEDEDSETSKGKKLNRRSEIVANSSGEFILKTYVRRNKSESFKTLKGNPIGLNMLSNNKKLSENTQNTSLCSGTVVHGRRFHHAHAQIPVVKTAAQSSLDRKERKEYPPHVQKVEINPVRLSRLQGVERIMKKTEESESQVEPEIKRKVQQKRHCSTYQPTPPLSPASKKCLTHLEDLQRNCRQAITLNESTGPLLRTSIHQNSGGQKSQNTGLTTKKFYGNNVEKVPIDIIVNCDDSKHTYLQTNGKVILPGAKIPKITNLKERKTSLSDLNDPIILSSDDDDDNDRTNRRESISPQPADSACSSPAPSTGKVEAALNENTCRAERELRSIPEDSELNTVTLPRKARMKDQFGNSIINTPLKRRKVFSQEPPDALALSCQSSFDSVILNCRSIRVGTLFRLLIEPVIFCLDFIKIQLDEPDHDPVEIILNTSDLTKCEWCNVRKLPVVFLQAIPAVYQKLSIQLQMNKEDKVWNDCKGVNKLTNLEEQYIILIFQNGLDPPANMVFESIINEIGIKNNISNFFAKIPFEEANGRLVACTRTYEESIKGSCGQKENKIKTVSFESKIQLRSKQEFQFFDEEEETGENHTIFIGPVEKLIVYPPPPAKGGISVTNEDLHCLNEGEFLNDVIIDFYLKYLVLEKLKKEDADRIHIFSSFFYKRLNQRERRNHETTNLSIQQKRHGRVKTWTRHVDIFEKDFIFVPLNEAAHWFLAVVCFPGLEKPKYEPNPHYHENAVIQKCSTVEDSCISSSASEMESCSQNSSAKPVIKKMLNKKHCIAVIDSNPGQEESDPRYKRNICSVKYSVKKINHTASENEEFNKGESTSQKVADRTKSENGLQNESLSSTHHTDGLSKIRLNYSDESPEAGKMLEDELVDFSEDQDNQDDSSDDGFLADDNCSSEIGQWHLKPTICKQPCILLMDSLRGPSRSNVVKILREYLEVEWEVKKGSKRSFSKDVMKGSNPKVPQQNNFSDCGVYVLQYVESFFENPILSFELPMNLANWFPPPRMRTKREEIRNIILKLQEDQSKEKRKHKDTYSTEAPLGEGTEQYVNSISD

[2] = target: T2, Sentrin-specific protease 8 (Homo sapiens, UniProt Q96LD8); test: SENP8 protease inhibitors, SAR follow-up, biochemical, luminescence, set 2 (AID 588601)
T2 sequence (Q96LD8 whole entry): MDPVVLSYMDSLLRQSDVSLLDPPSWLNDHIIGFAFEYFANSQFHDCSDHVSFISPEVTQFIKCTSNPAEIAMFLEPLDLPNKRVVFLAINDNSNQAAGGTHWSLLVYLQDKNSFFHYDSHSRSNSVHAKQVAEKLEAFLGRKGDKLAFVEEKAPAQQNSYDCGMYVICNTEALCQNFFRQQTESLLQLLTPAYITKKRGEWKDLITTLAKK

Caspase-3 = target: T3, Caspase-3 (Homo sapiens, UniProt P42574); test: caspase-3 inhibitors as off-family protease, SAR follow-up, selectivity assay for SENP protease inhibitor project, biochemical, luminescence, set 2 (AID 588599)
T3 sequence (P42574 whole entry): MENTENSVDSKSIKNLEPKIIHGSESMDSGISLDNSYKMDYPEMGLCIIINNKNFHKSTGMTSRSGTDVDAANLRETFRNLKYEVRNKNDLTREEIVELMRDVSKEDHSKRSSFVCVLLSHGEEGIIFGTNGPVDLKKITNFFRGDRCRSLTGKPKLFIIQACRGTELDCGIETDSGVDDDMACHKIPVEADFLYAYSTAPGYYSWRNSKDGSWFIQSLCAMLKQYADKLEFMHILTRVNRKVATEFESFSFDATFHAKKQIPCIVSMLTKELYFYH

[3] = target: T4, Sentrin-specific protease 7 (Homo sapiens, UniProt Q9BQF6); test: SENP7 protease inhibitors, SAR follow-up, biochemical, luminescence, set 2 (AID 588600)
T4 sequence (Q9BQF6 whole entry): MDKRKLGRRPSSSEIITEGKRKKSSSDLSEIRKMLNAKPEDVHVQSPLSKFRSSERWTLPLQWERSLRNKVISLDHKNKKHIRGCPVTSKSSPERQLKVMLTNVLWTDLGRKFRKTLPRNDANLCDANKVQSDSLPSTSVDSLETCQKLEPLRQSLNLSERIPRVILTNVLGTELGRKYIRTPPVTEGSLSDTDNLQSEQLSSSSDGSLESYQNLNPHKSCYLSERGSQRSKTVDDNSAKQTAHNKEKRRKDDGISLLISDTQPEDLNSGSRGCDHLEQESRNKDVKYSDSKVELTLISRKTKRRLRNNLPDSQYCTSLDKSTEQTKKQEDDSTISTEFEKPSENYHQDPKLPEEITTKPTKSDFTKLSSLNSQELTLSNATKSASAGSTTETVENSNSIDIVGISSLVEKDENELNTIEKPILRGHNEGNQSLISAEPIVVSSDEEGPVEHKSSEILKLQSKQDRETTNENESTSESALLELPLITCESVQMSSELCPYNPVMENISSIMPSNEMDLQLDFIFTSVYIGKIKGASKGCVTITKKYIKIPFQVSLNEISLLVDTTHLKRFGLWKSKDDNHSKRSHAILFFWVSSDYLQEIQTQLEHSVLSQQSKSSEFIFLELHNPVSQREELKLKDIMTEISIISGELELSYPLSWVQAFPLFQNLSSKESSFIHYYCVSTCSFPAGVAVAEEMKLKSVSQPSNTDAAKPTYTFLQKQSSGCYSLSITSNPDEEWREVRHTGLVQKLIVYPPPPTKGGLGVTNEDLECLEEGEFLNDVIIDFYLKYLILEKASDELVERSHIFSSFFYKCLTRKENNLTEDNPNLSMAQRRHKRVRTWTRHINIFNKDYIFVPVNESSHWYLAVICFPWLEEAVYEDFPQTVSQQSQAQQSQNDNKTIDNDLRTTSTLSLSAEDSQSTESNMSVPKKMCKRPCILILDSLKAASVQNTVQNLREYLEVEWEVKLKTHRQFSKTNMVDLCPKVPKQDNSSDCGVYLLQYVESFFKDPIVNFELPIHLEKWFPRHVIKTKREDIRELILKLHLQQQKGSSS

Phospholipase D1 = Phospholipase D1 (Homo sapiens, UniProt Q13393); test: PLD1 purified enzyme concentration response. [Related pubchem assays (depositor defined):AID588854]
Phospholipase D1, sequence (Q13393 whole entry): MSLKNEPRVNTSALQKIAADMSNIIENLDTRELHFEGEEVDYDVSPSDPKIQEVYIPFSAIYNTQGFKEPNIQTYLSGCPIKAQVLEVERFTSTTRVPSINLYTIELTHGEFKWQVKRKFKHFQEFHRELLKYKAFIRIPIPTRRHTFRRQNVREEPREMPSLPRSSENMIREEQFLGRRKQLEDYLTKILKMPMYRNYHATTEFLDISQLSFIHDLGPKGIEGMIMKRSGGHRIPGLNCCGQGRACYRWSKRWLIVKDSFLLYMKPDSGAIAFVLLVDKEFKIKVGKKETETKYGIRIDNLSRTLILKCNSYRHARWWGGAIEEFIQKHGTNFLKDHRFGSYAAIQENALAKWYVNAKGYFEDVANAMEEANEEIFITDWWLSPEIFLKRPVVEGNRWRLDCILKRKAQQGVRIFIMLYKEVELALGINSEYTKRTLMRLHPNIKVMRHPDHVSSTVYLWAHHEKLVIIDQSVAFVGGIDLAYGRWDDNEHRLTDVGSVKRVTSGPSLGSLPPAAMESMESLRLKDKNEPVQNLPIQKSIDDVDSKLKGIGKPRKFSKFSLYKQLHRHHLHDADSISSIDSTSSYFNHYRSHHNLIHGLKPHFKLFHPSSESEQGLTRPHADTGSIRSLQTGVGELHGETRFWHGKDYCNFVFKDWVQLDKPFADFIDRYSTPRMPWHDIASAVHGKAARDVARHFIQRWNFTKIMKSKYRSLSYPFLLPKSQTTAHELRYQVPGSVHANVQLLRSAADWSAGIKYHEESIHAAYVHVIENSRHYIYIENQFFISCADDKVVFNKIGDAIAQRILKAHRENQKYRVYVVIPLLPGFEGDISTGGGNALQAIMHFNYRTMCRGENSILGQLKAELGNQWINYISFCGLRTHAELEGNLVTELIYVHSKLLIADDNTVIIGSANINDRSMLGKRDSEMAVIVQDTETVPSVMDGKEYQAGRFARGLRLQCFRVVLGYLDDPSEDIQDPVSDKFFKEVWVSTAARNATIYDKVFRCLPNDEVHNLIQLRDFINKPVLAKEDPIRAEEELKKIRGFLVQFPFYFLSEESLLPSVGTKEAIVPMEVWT

Phospholipase D2 = Phospholipase D2 (Homo sapiens, UniProt O14939); test: PLD2 purified enzyme concentration response. [Related pubchem assays (depositor defined):AID588854]
Phospholipase D2, sequence (O14939 whole entry): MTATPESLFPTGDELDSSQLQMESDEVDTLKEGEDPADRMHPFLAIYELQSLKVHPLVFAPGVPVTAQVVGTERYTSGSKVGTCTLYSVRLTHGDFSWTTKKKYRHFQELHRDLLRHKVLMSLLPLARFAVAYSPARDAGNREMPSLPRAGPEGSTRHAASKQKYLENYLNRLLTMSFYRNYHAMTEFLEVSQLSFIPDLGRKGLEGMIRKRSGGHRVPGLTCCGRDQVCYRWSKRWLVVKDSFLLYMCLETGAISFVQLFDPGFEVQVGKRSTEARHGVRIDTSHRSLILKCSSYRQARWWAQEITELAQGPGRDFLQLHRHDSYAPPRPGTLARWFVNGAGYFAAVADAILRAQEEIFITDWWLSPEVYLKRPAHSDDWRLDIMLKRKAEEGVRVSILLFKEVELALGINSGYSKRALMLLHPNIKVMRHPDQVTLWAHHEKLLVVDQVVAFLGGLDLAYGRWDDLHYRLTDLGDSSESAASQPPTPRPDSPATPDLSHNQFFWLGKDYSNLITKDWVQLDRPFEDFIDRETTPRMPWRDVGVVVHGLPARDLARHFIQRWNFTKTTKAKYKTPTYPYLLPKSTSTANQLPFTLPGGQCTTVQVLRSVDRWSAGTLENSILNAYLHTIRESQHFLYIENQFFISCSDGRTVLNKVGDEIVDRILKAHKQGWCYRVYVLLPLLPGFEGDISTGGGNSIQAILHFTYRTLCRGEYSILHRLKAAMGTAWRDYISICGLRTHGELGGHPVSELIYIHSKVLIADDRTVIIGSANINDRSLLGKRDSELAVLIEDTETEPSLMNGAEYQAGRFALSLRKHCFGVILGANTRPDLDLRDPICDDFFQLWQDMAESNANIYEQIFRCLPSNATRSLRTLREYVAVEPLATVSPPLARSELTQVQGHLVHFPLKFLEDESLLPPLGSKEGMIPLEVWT

[4] = Vero cell cytotoxicity, cytotoxicity control for M. tuberculosis inhibitor project, purified and synthesized samples, set 8 (AID 602431); conditions: Mycobacterium tuberculosis
[5] = HepG2 cell cytotoxicity, cytotoxicity control, set 6 (AID 602432); conditions: Mycobacterium tuberculosis
[6] = THP-1 cell cytotoxicity, cytotoxicity control, set 6 (AID 602433); conditions: Mycobacterium tuberculosis

Q: For `Cc1[nH]c2ccccc2c1C(=O)C(=O)N1CCCCCC1`, which IC50 [1] is on record?
A: The IC50 was > 99 µM (inactive).

Q: What about the IC50 [2] of the same compound?
A: Its IC50 is > 99 µM (inactive).

Q: And the IC50 (Caspase-3)?
A: The IC50 was > 99 µM (inactive).

Q: What about the IC50 [3] of the same compound?
A: The IC50 was > 99 µM (inactive).

Q: Which results are given for `O=C(NCCN1CCC2(CC1)C(=O)NCN2c1ccc(F)c(F)c1)c1ccc2ccccc2c1`?
A: IC50 (Phospholipase D1): 20 µM (active); IC50 (Phospholipase D2): 0.098 µM (active)

Q: With `O=C(NCc1ccc(C(=O)N2CCC(c3ccccc3)CC2)cc1)NC1CCCCC1` as the compound, how does the CC50 [4] read?
A: The CC50 was 82.5 µM (active).

Q: And the CC50 [5]?
A: The CC50 was > 50 µM (inconclusive).

Q: What about the CC50 [6] of the same compound?
A: Its CC50 is 65.8 µM (active).
